Patent US20250145594A1, “MODULATORS OF THE INTEGRATED STRESS PATHWAY” (Calico Life Sciences LLC, priority 2020, published 2025)

Tested on: ATF4 luciferase reporter in HEK293T cells
Experiment: ATF4-Luc assay (in vitro model of VWMD)
Assay type: cell-based, human
Conditions: HEK293T cells carrying the ATF4 luciferase reporter, 1 μg/mL tunicamycin, One Glo luminescence
Summary of the method: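 Tunicamycin (1 μg/mL) stress with co-added compound for 7 hours in HEK293T cells stably carrying an ATF4 5′-UTR–luciferase reporter. EC50 values come from the luminescent signal (One Glo).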

Compound | EC50 (Homo sapiens, HEK-293T, 7 h) [µM] | EC50 (7 hours) [µM]
O=C(CO[C@H]1C[C@@H](OC(F)(F)F)C1)NC12CCC(NC(=O)[C@H]3C[C@@H](O)c4cc(C(F)(F)F)c(F)cc4O3)(CC1)C[C@@H]2O [Compound 647, (2R,4R)-7-fluoro-4-hydroxy-N-[(3S)-3-hydroxy-4-(2-{[(1s,3R)-3-(trifluoromethoxy)cyclobutyl]oxy}acetamido)bicyclo[2.2.2]octan-1-yl]-6-(trifluoromethyl)-3,4-dihydro-2H-1-benzopyran-2-carboxamide] | < 0.01 | –
O=C(NC12CC(c3ccnc(OCCOC(F)(F)F)n3)(C1)C2)[C@H]1C[C@@H](O)c2cc(Cl)c(F)cc2O1 [Compound 469, (2R,4R)-6-chloro-7-fluoro-4-hydroxy-N-(3-{2-[2-(trifluoromethoxy)ethoxy]pyrimidin-4-yl)bicyclo[1.1.1]pentan-1-yl}-3,4-dihydro-2H-1-benzopyran-2-carboxamide] | < 0.01 | –
O=C(NC12CC(n3cc(-c4ccc(OC(F)(F)F)cn4)cn3)(C1)C2)[C@@H]1C[C@@H](O)c2cc(Cl)c(F)cc2O1 [Compound 474, (2S,4R)-6-chloro-7-fluoro-4-hydroxy-N-(3-{4-[5-(trifluoromethoxy)pyridin-2-yl]-1H-pyrazol-1-yl}bicyclo[1.1.1]pentan-1-yl)-3,4-dihydro-2H-1-benzopyran-2-carboxamide] | < 0.01 | –
O=C(NC12CC(n3cc(N4CC[C@@H](COC(F)(F)F)C4)cn3)(C1)C2)[C@H]1C[C@@H](O)c2cc(Cl)ccc2O1 [Compound 336, (2R,4R)-6-chloro-4-hydroxy-N-[3-(4-{(3R)-3-[(trifluoromethoxy)methyl]pyrrolidin-1-yl}-1H-pyrazol-1-yl)bicyclo[1.1.1]pentan-1-yl]-3,4-dihydro-2H-1-benzopyran-2-carboxamide] | 0.05 to 0.25 | –
O=C(NC12CC(n3cc(-c4ccc(OC(F)(F)F)cc4)nn3)(C1)C2)[C@H]1C[C@@H](O)c2cc(Cl)ccc2O1 [Compound 357, (2R,4R)-6-chloro-4-hydroxy-N-(3-{4-[4-(trifluoromethoxy)phenyl]-1H-1,2,3-triazol-1-yl}bicyclo[1.1.1]pentan-1-yl)-3,4-dihydro-2H-1-benzopyran-2-carboxamide] | < 0.01 | –
O=C(COc1ccc(Cl)c(F)c1)NC12CC(n3cc(OCCOC(F)(F)F)cn3)(C1)C2 [Compound 617, 2-(4-chloro-3-fluorophenoxy)-N-(3-{4-[2-(trifluoromethoxy)ethoxy]-1H-pyrazol-1-yl}bicyclo[1.1.1]pentan-1-yl)acetamide] | – | < 0.01
O=C(NC12CC(n3cc([C@H]4CC[C@@H](OC(F)(F)F)C4)nn3)(C1)C2)[C@H]1C[C@@H](O)c2cc(Cl)ccc2O1 (relative stereo) [Compound 540, (2R,4R)-6-chloro-4-hydroxy-N-(3-{4-[(1S*,3R*)-3-(trifluoromethoxy)cyclopentyl]-1H-1,2,3-triazol-1-yl}bicyclo[1.1.1]pentan-1-yl)-3,4-dihydro-2H-1-benzopyran-2-carboxamide] | 0.01 to 0.05 | –
O=C(NC12CC(n3cc(-c4ccc(C(F)(F)F)cn4)cn3)(C1)C2)[C@H]1C[C@@H](O)c2cc(Cl)c(Cl)cc2O1 [Compound 567, (2R,4R)-6,7-dichloro-4-hydroxy-N-(3-{4-[5-(trifluoromethyl)pyridin-2-yl]-1H-pyrazol-1-yl}bicyclo[1.1.1]pentan-1-yl)-3,4-dihydro-2H-1-benzopyran-2-carboxamide] | < 0.01 | –
O=C(NC12CC(n3cc(-c4ccc(C(F)(F)F)cn4)cn3)(C1)C2)[C@@H]1C[C@@H](O)c2cc(C(F)(F)F)ccc2O1 [Compound 548, (2S,4R)-4-hydroxy-6-(trifluoromethyl)-N-(3-{4-[5-(trifluoromethyl)pyridin-2-yl]-1H-pyrazol-1-yl}bicyclo[1.1.1]pentan-1-yl)-3,4-dihydro-2H-1-benzopyran-2-carboxamide] | < 0.01 | –
